{"source": "paper PMC5052559", "about": "“A fragment-based approach applied to a highly flexible target: Insights and challenges towards the inhibition of HSP70 isoforms” (Scientific Reports, 2016)", "key": {"WT HSC70-NBD": {"target": "T1, WT HSC70-NBD (Homo sapiens, UniProt P11142)", "T1 construct": "WT HSPA8 (HSC70) residues 1 to 381; GST (N, cleaved yes); made in house; host or cells: E. coli BL21-AI (expressed as described for FL-HSP72)", "T1 sequence (P11142 1-381)": "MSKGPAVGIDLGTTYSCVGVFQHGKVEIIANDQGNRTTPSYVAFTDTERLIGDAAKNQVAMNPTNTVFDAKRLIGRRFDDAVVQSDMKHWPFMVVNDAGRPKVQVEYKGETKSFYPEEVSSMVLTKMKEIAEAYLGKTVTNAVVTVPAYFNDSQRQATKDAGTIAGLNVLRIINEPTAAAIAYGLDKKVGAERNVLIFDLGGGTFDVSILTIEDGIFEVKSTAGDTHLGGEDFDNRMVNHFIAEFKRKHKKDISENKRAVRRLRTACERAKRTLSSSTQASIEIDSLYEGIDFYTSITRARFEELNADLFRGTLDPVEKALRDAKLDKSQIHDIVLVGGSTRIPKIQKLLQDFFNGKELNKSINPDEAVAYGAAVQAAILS", "assay": "SPR binding to wild-type HSC70-NBD", "details": "for Kd / Kd WT HSC70-NBD: SPR, 25 °C; for increase in affinity compared to parent fragment: SPR Kd, 23 vs 10, 24 vs 19; for LE (ligand efficiency): calculated using the SPR Kd on WT HSC70-NBD", "method": "(§1) SPR experiments were carried out using a Biacore T200 (GE Healthcare) at 25 °C. Amine coupling chemistry was used to immobilise the HSC70 NBD domain and S275W, S275F and S275A HSC70-NBD mutant proteins on a carboxymethyl-5′-dextran (CM5) sensor chip. The chip’s surface was activated with a 10 min injection of a 1:1 mixture of 100 mM N-hydroxysuccinimide and 400 mM 1-ethyl-3-(3-dimethylaminopropyl)-carbodiimide. […] The remaining activated groups on the surface were blocked with a 7 min injection of 1 M ethanolamine at pH 8.5. […] Flow cell one was left unmodified as the reference surface.\n(§2) In addition, a DMSO correction curve, prepared as described in the GE manual, was used to correct the effects of the solvent on signal intensity. Raw SPR data from the single point screen was processed and analysed using Pipeline Pilot version 8.0.1.500[37]. Firstly, the reported binding level for each fragment was corrected by subtraction of the buffer blank.\n(§3) The initial fragment hits were further investigated in a three-point concentration-response experiment against freshly immobilised WT HSC70-NBD and the S275W HSC70-NBD mutants using the same experimental protocol as for the primary screen. Compound dilutions of 50, 100 and 200 μM were generated using the ECHO 550."}, "S275W HSC70-NBD": {"target": "T2, S275W HSC70-NBD (Homo sapiens, UniProt P11142, S275W)", "T2 construct": "WT HSPA8 (HSC70) residues 1 to 381; GST (N, cleaved yes); made in house; host or cells: E. coli BL21-AI (expressed as described for FL-HSP72)", "T2 sequence (P11142 1-381 S275W)": "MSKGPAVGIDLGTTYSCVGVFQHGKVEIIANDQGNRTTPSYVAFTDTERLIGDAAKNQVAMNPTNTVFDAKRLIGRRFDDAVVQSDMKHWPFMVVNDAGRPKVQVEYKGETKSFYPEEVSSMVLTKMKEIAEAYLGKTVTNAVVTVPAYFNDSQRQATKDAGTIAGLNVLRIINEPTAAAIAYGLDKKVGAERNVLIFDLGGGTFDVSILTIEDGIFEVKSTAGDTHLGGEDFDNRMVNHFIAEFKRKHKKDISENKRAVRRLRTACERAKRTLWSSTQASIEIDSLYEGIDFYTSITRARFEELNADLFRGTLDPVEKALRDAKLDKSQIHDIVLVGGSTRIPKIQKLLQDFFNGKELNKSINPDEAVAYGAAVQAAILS", "assay": "SPR binding to S275W HSC70-NBD mutant", "details": "single measurement", "method": "as §1, §2, §3"}, "[1]": {"details": "mean ± standard deviation or standard error, triplicate unless marked duplicate/single"}, "[2]": {"details": "mean ± SD, No binding = binding level ≤10RU at 1mM"}}}
{"smiles": "COc1cccc2ncnc(N)c12", "note": "[Compound 15]", "values": [{"measurement": "Kd", "setting": "WT HSC70-NBD; [1]", "value": 830, "unit": "µM"}]}
{"smiles": "COc1ccc2ncnc(N)c2c1", "note": "[Compound 16, 6-methoxy 4-aminoquinazoline]", "values": [{"measurement": "Kd", "setting": "WT HSC70-NBD; [1]", "value": 1000, "unit": "µM"}]}
{"smiles": "COc1ccc2c(N)ncnc2c1", "note": "[Compound 17]", "values": [{"measurement": "Kd", "setting": "WT HSC70-NBD; [1]", "value": 850, "unit": "µM"}]}
{"smiles": "COc1cccc2c(N)ncnc12", "note": "[Compound 18]", "values": [{"measurement": "Kd", "setting": "WT HSC70-NBD; [1]", "value": 2000, "unit": "µM"}]}
{"smiles": "COc1cc2ncnc(N)c2cc1OC", "note": "[Compound 19]", "values": [{"measurement": "Kd", "setting": "WT HSC70-NBD; [1]", "value": 830, "unit": "µM"}]}
{"smiles": "CNc1ncnc2ccccc12", "note": "[Compound 20]", "values": [{"measurement": "Kd", "setting": "WT HSC70-NBD; [1]", "value": "4800 ± 1100", "unit": "µM"}]}
{"smiles": "OC[C@H]1C[C@@H](Nc2ncnc3ccccc23)[C@H](O)[C@@H]1O", "note": "[Compound 23]", "values": [{"measurement": "increase in affinity compared to parent fragment", "setting": "WT HSC70-NBD", "value": 7, "unit": "fold"}, {"measurement": "Kd", "setting": "WT HSC70-NBD; [2]", "value": "310 ± 100", "unit": "µM"}]}
{"smiles": "COc1cc2ncnc(N[C@@H]3C[C@H](CO)[C@@H](O)[C@H]3O)c2cc1OC", "note": "[Compound 24]", "values": [{"measurement": "increase in affinity compared to parent fragment", "setting": "WT HSC70-NBD", "value": "three-fold"}, {"measurement": "Kd", "setting": "WT HSC70-NBD; [1]", "value": 250, "unit": "µM"}]}
{"smiles": "COc1cccc2ncnc(N[C@@H]3C[C@H](CO)[C@@H](O)[C@H]3O)c12", "note": "[Compound 26]", "values": [{"measurement": "Kd", "setting": "WT HSC70-NBD; [1]", "value": 1040, "unit": "µM"}]}
{"smiles": "OC[C@H]1C[C@@H](Nc2ncnc3cccc(OCc4ccc(Cl)c(Cl)c4)c23)[C@H](O)[C@@H]1O", "note": "[Compound 27]", "values": [{"measurement": "Kd", "setting": "WT HSC70-NBD; [1]", "value": 850, "unit": "µM"}, {"measurement": "LE (ligand efficiency)", "setting": "WT HSC70-NBD", "value": 0.14}, {"measurement": "Kd", "setting": "S275W HSC70-NBD", "value": 5000, "unit": "µM"}]}
{"smiles": "OC[C@H]1C[C@@H](Nc2ncnc3cccc(OCc4ccccc4)c23)[C@H](O)[C@@H]1O", "note": "[Compound 28]", "values": [{"measurement": "Kd", "setting": "WT HSC70-NBD; [1]", "value": 370, "unit": "µM"}, {"measurement": "LE (ligand efficiency)", "setting": "WT HSC70-NBD", "value": 0.17}, {"measurement": "Kd S275W HSC70-NBD", "setting": "S275W HSC70-NBD", "value": "No binding"}]}
{"smiles": "N#Cc1ccc(COC[C@H]2C[C@@H](Nc3ncnc4cccc(OCc5ccccc5)c34)[C@H](O)[C@@H]2O)cc1", "note": "[Compound 29]", "values": [{"measurement": "Kd", "setting": "WT HSC70-NBD; [1]", "value": 2000, "unit": "µM"}, {"measurement": "LE (ligand efficiency)", "setting": "WT HSC70-NBD", "value": 0.10}, {"measurement": "Kd", "setting": "S275W HSC70-NBD", "value": 2000, "unit": "µM"}]}
{"smiles": "Nc1nc2c(ncn2[C@@H]2O[C@H](COP(=O)(O)OP(=O)(O)O)[C@@H](O)[C@H]2O)c(=O)[nH]1", "note": "[GDP, reference compound]", "values": [{"measurement": "Kd", "setting": "WT HSC70-NBD; [2]", "value": 223, "unit": "µM"}, {"measurement": "LE (ligand efficiency)", "setting": "WT HSC70-NBD", "value": 0.18}]}
{"smiles": "Cc1cn([C@H]2C[C@H](O)[C@@H](COP(=O)(O)OP(=O)(O)O)O2)c(=O)[nH]c1=O", "note": "[TDP, reference compound]", "values": [{"measurement": "Kd WT HSC70-NBD", "setting": "WT HSC70-NBD; [2]", "value": "No binding"}]}
{"smiles": "O=c1ccn([C@@H]2O[C@H](COP(=O)(O)OP(=O)(O)O)[C@@H](O)[C@H]2O)c(=O)[nH]1", "note": "[UDP, reference compound]", "values": [{"measurement": "Kd WT HSC70-NBD", "setting": "WT HSC70-NBD; [2]", "value": "No binding"}]}
